Assay [1] addresses T1, SSTR5 (Homo sapiens, UniProt P35346). Briefly: Functional assay of SSTR5 mediated cyclic AMP production in SSTR5 expressing CHO cells. In kind it is cell-based, human or mouse. Particulars: Table 2; FSK plus SS-28; read-out: SSTR5 (cAMP) IC50.
Assay [2] has as its target T1, SSTR5. Briefly: SSTR5 receptor-ligand binding assay, CHO-K1 cell membranes, 125I-SRIF radioligand. More on the design: expressed in transfected cells; host or cells: CHO-K1 (membranes). Particulars: Table 2. On the procedure:
The receptor-ligand binding assays of all 5 subtype of SSTRs were performed with membranes isolated from Chinese hamster ovary (CHO)-K1 cells stably expressing the cloned human somatostatin receptors in 96-well format as previous reported.
The stable cell lines for SSTR1-SSTR5 were developed by stably transfecting with DNA for all five SSTRs using Lipofectamine. […] The assay buffer consisted of 50 mM TrisHCl (pH 7.8) with 1 mM EGTA, 5 mM MgCl2, leupeptin (10 μg/mL), pepstatin (10 μg/mL), bacitracin (200 μg/mL), and aprotinin (0.5 μg/mL). CHO-K1 cell membranes, radiolabeled somatostatin, and unlabeled test compounds were resuspended or diluted in this assay buffer. Unlabeled test compounds were examined over a range of concentrations from 0.01 nM to 10,000 nM.

The term IC50 denotes the point on the concentration scale where inhibition reaches its midpoint. For orientation: Ki means a dissociation constant, usually derived from enzyme kinetics or from competition with a known ligand.

T1 sequence (P35346 whole entry): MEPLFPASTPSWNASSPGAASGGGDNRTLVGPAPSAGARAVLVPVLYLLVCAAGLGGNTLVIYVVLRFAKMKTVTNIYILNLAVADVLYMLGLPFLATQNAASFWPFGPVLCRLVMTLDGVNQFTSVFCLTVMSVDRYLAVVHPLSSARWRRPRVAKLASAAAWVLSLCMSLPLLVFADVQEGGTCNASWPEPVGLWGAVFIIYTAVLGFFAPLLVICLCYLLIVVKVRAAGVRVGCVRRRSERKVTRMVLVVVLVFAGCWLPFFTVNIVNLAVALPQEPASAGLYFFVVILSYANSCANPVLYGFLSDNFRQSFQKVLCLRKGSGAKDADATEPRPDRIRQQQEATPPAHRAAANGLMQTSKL

In the case of `CCOc1cc(CN2CCC3(CC2)CNC(=O)C3)cc(OCC)c1-c1ccc(F)cc1` [Example 1, 8-[(2,6-diethoxy-4′-fluorobiphenyl-4-yl)methyl]-2,8-diazaspiro[4.5]decan-3-one], on SSTR5 [1], the IC50 turned out to be 52 nM. The compound further returned a Ki on SSTR5 [2] of 21 nM.

`CCOc1cc(CN2CCC3(CC2)CC(=O)N(c2ccc(C(N)=O)cc2)C3)cc(OCC)c1-c1ccc(F)cc1` [Example 3, 4-{8-[(2,6-diethoxy-4′-fluorobiphenyl-4-yl)methyl]-3-oxo-2,8-diazaspiro[4.5]dec-2-yl}benzamide trifluoromethyl acetate]: on SSTR5 [1], the IC50 was determined as 33 nM. Also, the Ki on SSTR5 [2] stood at 8.7 nM.

Regarding `CCOc1cc(CN2CCC3(CC2)CC(=O)N(c2ccc(C(=O)O)cc2)C3)cc(OCC)c1Br` [Example 5], the IC50 at SSTR5 [1] was 3.9 nM. This compound yielded a Ki on SSTR5 [2] of 7.5 nM.

As to `CCOc1cc(CN2CCC3(CC2)CC(=O)N(c2ccc(-c4noc(=O)[nH]4)cc2)C3)cc(OCC)c1-c1ccc(F)cc1` [Example 6, 8-[(2,6-diethoxy-4′-fluorobiphenyl-4-yl)methyl]-2-[4-(5-oxo-4,5-dihydro-1,2,4-oxadiazol-3-yl)phenyl]-2,8-diazaspiro[4.5]decan-3-one], at SSTR5 [1], the IC50 worked out at 1.8 nM. Besides, the inhibition constant Ki at SSTR5 [2] is 1 nM.

Consider `CCOc1cc(CN2CCC3(CC2)CC(=O)N(c2ccc(-c4nnn[nH]4)cc2)C3)cc(OCC)c1-c1ccc(F)cc1` [Example 7, 8-[(2,6-diethoxy-4′-fluorobiphenyl-4-yl)methyl]-2-[4-(1-H-tetrazol-5-yl)phenyl]-2,8-diazaspiro[4.5]decan-3-one trifluoromethyl acetate], for which the IC50 on SSTR5 [1] came to 1.3 nM. Besides, at SSTR5 [2], the affinity, expressed as Ki, was 0.76 nM.

As for `CCOc1cc(CN2CCC3(CC2)CC(=O)N(CC(=O)O)C3)cc(OCC)c1-c1ccc(F)cc1` [Example 8, {8-[(2,6-diethoxy-4′-fluorobiphenyl-4-yl)methyl]-3-oxo-2,8-diazaspiro[4.5]dec-2-yl}acetic acid trifluoromethyl acetate], the IC50 at SSTR5 [1] came to 159 nM. This compound showed a Ki on SSTR5 [2] of 190 nM.

On to `CCOc1cc(CN2CCC3(CC2)CC(=O)N(CCO)C3)cc(OCC)c1-c1ccc(F)cc1` [Example 9, 8-[(2,6-diethoxy-4′-fluorobiphenyl-4-yl)methyl]-2-(2-hydroxyethyl)-2,8-diazaspiro[4.5]decan-3-one trifluoromethyl acetate], for which the IC50 at SSTR5 [1] amounted to 159 nM. The compound also had a Ki at SSTR5 [2] of 71 nM.

As for `CCOc1cc(CN2CCC3(CC2)CC(=O)N(CCCC(=O)O)C3)cc(OCC)c1-c1ccc(F)cc1` [Example 23], the IC50 on SSTR5 [1] amounted to 44 nM. On SSTR5 [2], this compound displayed an inhibitory constant (Ki) of 53 nM.

As for `CCOc1cc(CN2CCC3(CC2)CC(=O)N(c2ccc(C(=O)O)cc2)C3)cc(OCC)c1-c1ccc(C(F)(F)F)cc1` [Example 35], the IC50 at SSTR5 [1] is 0.62 nM. For the same compound, the Ki on SSTR5 [2] was found to be 0.86 nM.

For `CCOc1cc(CN2CCC3(CC2)CC(=O)N(c2ccc(C(=O)O)cc2)C3)cc(OCC)c1-c1ccc(OC(F)(F)F)cc1` [Example 37], on SSTR5 [1], the IC50 is 0.6 nM. The compound also registered a Ki on SSTR5 [2] of 0.485 nM.

Regarding `CCOc1cc(CN2CCC3(CC2)CC(=O)N(c2ccc(C(=O)O)cc2)C3)cc(OCC)c1-c1cc(F)ccc1F` [Example 44], at SSTR5 [1], the IC50 was found to be 0.28 nM. At SSTR5 [2], affinity was put at a Ki of 1.55 nM.

Turning to `CCOc1cc(CN2CCC3(CC2)CC(=O)N(c2ccc(C(=O)O)cc2)C3)cc(OCC)c1-c1ccc(F)c(F)c1F` [Example 45], the IC50 on SSTR5 [1] came out at 1.5 nM. Also, at SSTR5 [2], the affinity corresponds to a Ki of 0.84 nM.

As for `CCOc1cc(CN2CCC3(CC2)CC(=O)N(c2ccc(-c4n[nH]c(=O)o4)cc2)C3)cc(OCC)c1-c1ccc(F)cc1` [Example 49], the IC50 at SSTR5 [1] amounted to 34 nM. Further, the Ki at SSTR5 [2] worked out at 8.9 nM.

As to `CCOc1cc(CN2CCC3(CC2)CC(=O)N(Cc2cccc(C(=O)O)c2)C3)cc(OCC)c1-c1ccc(F)cc1` [Example 52], the IC50 on SSTR5 [1] was 21 nM. This compound also had a Ki at SSTR5 [2] of 67 nM.

For `CCOc1cc(CN2CCC3(CC2)CC(=O)N(Cc2ccc(F)cc2)C3)cc(OCC)c1-c1ccc(F)cc1` [Example 53], on SSTR5 [1], the IC50 is 8.6 nM. Moreover, the affinity on SSTR5 [2] corresponds to a Ki of 3.9 nM.

With `CCOc1cc(CN2CCC3(CC2)CC(=O)N(c2cncc(C(=O)O)c2)C3)cc(OCC)c1-c1ccc(F)cc1` [Example 57], on SSTR5 [1], the IC50 was 3.6 nM. At SSTR5 [2], this compound gave a Ki of 10 nM.

As to `CCOc1cc(CN2CCC3(CC2)CC(=O)N(c2cccc(-c4nnn[nH]4)c2)C3)cc(OCC)c1-c1ccc(F)cc1` [Example 59], on SSTR5 [1], the IC50 was 4.7 nM. Besides, the Ki on SSTR5 [2] was determined as 3.6 nM.

For `CCOc1cc(CN2CCC3(CC2)CC(=O)N(c2cccc(C(N)=O)c2)C3)cc(OCC)c1-c1ccc(F)cc1` [Example 60], at SSTR5 [1], the IC50 turned out to be 16 nM. This compound displayed a Ki at SSTR5 [2] of 4.1 nM.

In the case of `CCOc1cc(CN2CCC3(CC2)CC(=O)N(c2ccccc2S(C)(=O)=O)C3)cc(OCC)c1-c1ccc(F)cc1` [Example 61], the IC50 on SSTR5 [1] turned out to be 13 nM. Besides, at SSTR5 [2], the affinity, expressed as Ki, was 2 nM.

As for `CCOc1cc(CN2CCC3(CC2)CC(=O)N(c2ccc(C(=O)O)cc2)C3)cc(OCC)c1-c1ncc(F)cc1F` [Example 65], the IC50 on SSTR5 [1] was found to be 3.6 nM. The affinity on SSTR5 [2], expressed as Ki, was 4.5 nM.

In the case of `O=C(O)c1ccc(N2CC3(CCN(Cc4cc(OC5CC5)c(-c5ncc(F)cc5F)c(OC5CC5)c4)CC3)CC2=O)cc1` [Example 66], at SSTR5 [1], the IC50 worked out at 1.8 nM. The compound also returned a Ki at SSTR5 [2] of 4.5 nM.

Consider `CCOc1cc(CN2CCC3(CC2)CC(=O)N(c2ccc(O)nc2)C3)cc(OCC)c1-c1ccc(F)cc1` [Example 74], for which the half-inhibitory concentration (IC50) on SSTR5 [1] was 3.1 nM. On SSTR5 [2], this compound registered a Ki of 3.1 nM.

With `CCOc1cc(CN2CCC3(CC2)CC(=O)N(c2cncc(O)c2)C3)cc(OCC)c1-c1ccc(F)cc1` [Example 81], the IC50 at SSTR5 [1] came to 7.9 nM. This compound registered an inhibition constant (Ki) at SSTR5 [2] of 3.7 nM.

With `CCOc1cc(CN2CCC3(CC2)CC(=O)N(c2ccc(C(=O)O)cn2)C3)cc(OCC)c1-c1ccc(F)cc1` [Example 84], the IC50 at SSTR5 [1] was determined as 4.7 nM. The same compound gave a Ki on SSTR5 [2] of 7.7 nM.

Turning to `CCOc1cc(CN2CCC3(CC2)CC(=O)N(c2ccc(C(=O)O)nc2)C3)cc(OCC)c1-c1ccc(F)cc1` [Example 85], on SSTR5 [1], the IC50 turned out to be 6.17 nM. The Ki at SSTR5 [2] was 5.27 nM.

In the case of `CCOc1cc(CN2CCC3(CC2)CC(=O)N(c2nccc(O)n2)C3)cc(OCC)c1-c1ccc(F)cc1` [Example 87], the IC50 at SSTR5 [1] came to 64 nM. The Ki at SSTR5 [2] is 337 nM.

`CCOc1ccc(-c2ccc(F)cc2F)c(CN2CCC3(CC2)CC(=O)N(c2ccc(C(=O)O)cc2)C3)c1` [Example 94]: at SSTR5 [1], the IC50 came to 7.3 nM. At SSTR5 [2], the inhibitory constant (Ki) worked out at 11 nM.

`CCOc1ccc(-c2ccc(F)c(F)c2F)c(CN2CCC3(CC2)CC(=O)N(c2ccc(C(=O)O)cc2)C3)c1` [Example 97]: the IC50 at SSTR5 [1] was determined as 1.8 nM. The compound further displayed a Ki at SSTR5 [2] of 7.5 nM.

`CCOc1cc(CN2CCC3(CC2)CC(=O)N(c2ccc(C(=O)O)cc2)C3)cc(-c2ccc(F)cc2F)c1` [Example 107]: the IC50 at SSTR5 [1] came out at 36 nM. Besides, the Ki at SSTR5 [2] amounted to 40 nM.

On to `CCOc1cc(CN2CCC3(CC2)CC(=O)N(c2ccc(C(=O)O)cc2)C3)cc(OCC)c1OCC` [Example 148], for which, at SSTR5 [1], the IC50 turned out to be 82 nM. The same compound yielded a Ki on SSTR5 [2] of 157 nM.

With `CC(C)Oc1cc(CN2CCC3(CC2)CC(=O)N(c2ccc(C(=O)O)cc2)C3)cc(OC(C)C)c1C#N` [Example 152], at SSTR5 [1], the half-maximal inhibitory concentration (IC50) amounted to 15 nM. At SSTR5 [2], this compound had a Ki of 14 nM.

Consider `CCOc1cc(CN2CCC3(CC2)CC(=O)N(c2ccc(C(=O)O)cc2)C3)cc(OCC)c1OCC(F)(F)F` [Example 153], for which the IC50 at SSTR5 [1] came out at 42 nM. In addition, affinity at SSTR5 [2] was put at a Ki of 55 nM.

Turning to `CCOc1cc(CN2CCC3(CC2)CC(=O)N(c2ccc(C(=O)O)cc2)C3)ccc1Cl` [Example 159], the IC50 on SSTR5 [1] was found to be 61 nM. Besides, the Ki at SSTR5 [2] came to 130 nM.

For `O=C(O)c1ccc(N2CC3(CCN(Cc4cc(O)c(-c5ccc(F)cc5)c(O)c4)CC3)CC2=O)cc1` [Example 162], the IC50 on SSTR5 [1] is more than 1000 nM. On SSTR5 [2], this compound returned a Ki of 1600 nM.

Values taken from patent US20120041012A1, “SUBSTITUTED SPIROCYCLIC AMINES USEFUL AS ANTIDIABETIC COMPOUNDS” (priority 2009, published 2012).
